Laboratory results: PubChem BioAssay AID248 (DTP/NCI, 2004)
Values joined by “and” are separate entries in the source; they are usually repeats but may differ in a detail not shown here. Equal entries are not always repeated. Toxic doses and inconclusive results are not listed. Rule as the data show it: active = T/C of 150% or more; inactive = T/C below 125%.

Tested on: L1210 leukemia ip in BDF1 mice, survival T/C
Experiment: NCI In Vivo Anticancer Drug Screen. Data for tumor model L1210 Leukemia (intraperitoneal) in B6D2F1 (BDF1) mice
Conditions: endpoint: mean survival time, higher = longer survival
Method in brief: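 In this screen, tumor-bearing mice given compound are compared to those given vehicle, and their survival values are reported as a treated-to-control quotient.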

[1] = dose: 100.0 mg/kg/injection, schedule: Q04DX003 (ip), vehicle: saline with Tween-80
[2] = dose: 200.0 mg/kg/injection, schedule: Q04DX003 (ip), vehicle: saline with Tween-80
[3] = dose: 6.25 mg/kg/injection, schedule: Q01DX009 (ip), vehicle: saline with Tween-80
[4] = dose: 12.5 mg/kg/injection, schedule: Q01DX009 (ip), vehicle: saline with Tween-80
[5] = dose: 25.0 mg/kg/injection, schedule: Q01DX009 (ip), vehicle: saline with Tween-80
[6] = dose: 50.0 mg/kg/injection, schedule: Q01DX009 (ip), vehicle: saline with Tween-80
[7] = dose: 100.0 mg/kg/injection, schedule: Q04DX002 (ip), vehicle: saline with Tween-80
[8] = dose: 200.0 mg/kg/injection, schedule: Q04DX002 (ip), vehicle: saline with Tween-80
[9] = dose: 50.0 mg/kg/injection, schedule: Q04DX002 (ip), vehicle: saline with Tween-80
[10] = dose: 100.0 mg/kg/injection, schedule: Q01DX009 (ip), vehicle: saline with Tween-80
[11] = dose: 100.0 mg/kg/injection, schedule: Q04DX003 (ip), vehicle: saline
[12] = dose: 200.0 mg/kg/injection, schedule: Q04DX003 (ip), vehicle: saline
[13] = dose: 400.0 mg/kg/injection, schedule: Q04DX003 (ip), vehicle: saline
[14] = dose: 100.0 mg/kg/injection, schedule: Q01DX009 (ip), vehicle: Klucel (hydroxypropylcellulose) (HPC)
[15] = dose: 200.0 mg/kg/injection, schedule: Q01DX009 (ip), vehicle: Klucel (hydroxypropylcellulose) (HPC)
[16] = dose: 50.0 mg/kg/injection, schedule: Q01DX001 (ip), vehicle: carboxymethylcellulose (CMC)
[17] = dose: 100.0 mg/kg/injection, schedule: Q01DX001 (ip), vehicle: carboxymethylcellulose (CMC)
[18] = dose: 200.0 mg/kg/injection, schedule: Q01DX001 (ip), vehicle: carboxymethylcellulose (CMC)
[19] = dose: 400.0 mg/kg/injection, schedule: Q01DX001 (ip), vehicle: carboxymethylcellulose (CMC)
[20] = dose: 400.0 mg/kg/injection, schedule: Q04DX003 (ip), vehicle: saline with Tween-80
[21] = dose: 100.0 mg/kg/injection, schedule: Q04DX002 (ip), vehicle: Klucel (hydroxypropylcellulose) (HPC)
[22] = dose: 200.0 mg/kg/injection, schedule: Q04DX002 (ip), vehicle: Klucel (hydroxypropylcellulose) (HPC)
[23] = dose: 400.0 mg/kg/injection, schedule: Q04DX002 (ip), vehicle: Klucel (hydroxypropylcellulose) (HPC)

Measured: T/C

CCCCN(CCO)C(C#CC(C)(C)O)C(C)C (centres undefined)
inactive: [1] 95 % of control | [2] 101 % of control

O=[N+]([O-])CC(OCCCO)C(Cl)(Cl)Cl (centres undefined)
inactive: [3] 92 % of control | [4] 101 % of control | [5] 104 % of control | [6] 92 % of control and 91 % of control

CN(C)c1ccc(/C=N/NC(=O)c2ccccc2)cc1
inactive: dose: 100.0 mg/kg/injection, schedule: Q04DX003 (ip), vehicle: other 94 % of control | dose: 200.0 mg/kg/injection, schedule: Q04DX003 (ip), vehicle: other 97 % of control | dose: 400.0 mg/kg/injection, schedule: Q04DX003 (ip), vehicle: other 98 % of control

NNP(=O)(N1CCCCC1)N1CCCCC1
inactive: [7] 90 % of control | [8] 97 % of control

CCOC(=O)C(=O)c1cnc2c(OC)nn(O)cc1-2
inactive: dose: 12.5 mg/kg/injection, schedule: Q04DX002 (ip), vehicle: saline with Tween-80 102 % of control | dose: 25.0 mg/kg/injection, schedule: Q04DX002 (ip), vehicle: saline with Tween-80 109 % of control | [9] 102 % of control

Cc1ccc(NC(N)=S)cc1C
inactive: [5] 105 % of control | [6] 90 % of control | [10] 86 % of control

O=C(CCCCC(=O)N(CCO)CCO)N(CCO)CCO
inactive: [11] 102 % of control | [12] 100 % of control | [13] 102 % of control

Nc1nc2n(O)cc(C(O)C(O)CO)nc-2c(=O)n1 (centres undefined)
inactive: dose: 100.0 mg/kg/injection, schedule: Q01DX001 (ip), vehicle: saline 100 % of control | dose: 200.0 mg/kg/injection, schedule: Q01DX001 (ip), vehicle: saline 103 % of control | dose: 400.0 mg/kg/injection, schedule: Q01DX001 (ip), vehicle: saline 103 % of control

OCC(O)C(O)C(O)/C=N\Nc1ccc(Br)cc1 (centres undefined)
inactive: [9] 93 % of control | [7] 95 % of control | [8] 87 % of control

Cc1ccc([N+](=O)[O-])cc1NC(=O)Nc1ccccc1C(F)(F)F
inactive: [14] 93 % of control | [15] 96 % of control | dose: 400.0 mg/kg/injection, schedule: Q01DX009 (ip), vehicle: Klucel (hydroxypropylcellulose) (HPC) 95 % of control

O=P(NC1CCCCC1)(Oc1ccccc1)Oc1ccccc1
inactive: [16] 95 % of control | [17] 92 % of control | [1] 102 % of control | [18] 97 % of control | [2] 97 % of control | [19] 97 % of control | [20] 100 % of control

O=S(=O)(O)c1ccc2cc(O)c(O)cc2c1
inactive: [21] 91 % of control | [22] 95 % of control | [23] 95 % of control

CCN(CC)C(=S)SC(C)C(=O)OC (centres undefined)
inactive: [21] 96 % of control | [22] 107 % of control | [23] 103 % of control

CN(C)CC/C=C1\c2ccccc2CN(C)c2ccccc21
inactive: [3] 94 % of control | dose: 6.25 mg/kg/injection, schedule: Q01DX009 (ip), vehicle: saline 108 % of control | [4] 104 % of control | dose: 12.5 mg/kg/injection, schedule: Q01DX009 (ip), vehicle: saline 107 % of control | [5] 88 % of control | dose: 25.0 mg/kg/injection, schedule: Q01DX009 (ip), vehicle: saline 94 % of control | dose: 25.0 mg/kg/injection, schedule: Q04DX003 (ip), vehicle: saline with Tween-80 88 % of control | dose: 25.0 mg/kg/injection, schedule: Q04DX003 (ip), vehicle: saline 97 % of control | dose: 50.0 mg/kg/injection, schedule: Q01DX009 (ip), vehicle: saline 94 % of control | dose: 50.0 mg/kg/injection, schedule: Q04DX003 (ip), vehicle: saline with Tween-80 96 % of control | dose: 50.0 mg/kg/injection, schedule: Q04DX003 (ip), vehicle: saline 97 % of control | dose: 100.0 mg/kg/injection, schedule: Q01DX009 (ip), vehicle: saline 105 % of control | [1] 94 % of control | [11] 101 % of control

O=[N+]([O-])c1cccc2c1C1c3ccccc3C2c2ccccc21
inactive: [16] 93 % of control | [17] 93 % of control | [18] 96 % of control | [19] 96 % of control

c1ccc([P+](c2ccccc2)(c2ccccc2)c2ccc([P+](c3ccccc3)(c3ccccc3)c3ccccc3)c3ccccc23)cc1
inactive: dose: 0.6 mg/kg/injection, schedule: Q04DX003 (ip), vehicle: Klucel (hydroxypropylcellulose) (HPC) 92 % of control | dose: 1.0 mg/kg/injection, schedule: Q04DX003 (ip), vehicle: Klucel (hydroxypropylcellulose) (HPC) 92 % of control | dose: 1.5 mg/kg/injection, schedule: Q04DX003 (ip), vehicle: Klucel (hydroxypropylcellulose) (HPC) 92 % of control | dose: 2.25 mg/kg/injection, schedule: Q04DX003 (ip), vehicle: Klucel (hydroxypropylcellulose) (HPC) 92 % of control | dose: 3.12 mg/kg/injection, schedule: Q04DX003 (ip), vehicle: Klucel (hydroxypropylcellulose) (HPC) 96 % of control | dose: 6.25 mg/kg/injection, schedule: Q04DX003 (ip), vehicle: Klucel (hydroxypropylcellulose) (HPC) 94 % of control

O=C1CNC(c2ccccc2)c2cc(Cl)ccc2N1 (centres undefined)
inactive: dose: 25.0 mg/kg/injection, schedule: Q01DX009 (ip), vehicle: Klucel (hydroxypropylcellulose) (HPC) 101 % of control | [14] 92 % of control | [15] 87 % of control

Nc1cc2c3c(cccc3c1Br)C(=O)NC2=O
inactive: [21] 121 % of control | [22] 96 % of control | [23] 107 % of control

CCCNC(=O)NCCN(CC)c1ccccc1
inactive: [17] 97 % of control | dose: 100.0 mg/kg/injection, schedule: Q01DX009 (ip), vehicle: carboxymethylcellulose (CMC) 93 % of control and 101 % of control | dose: 100.0 mg/kg/injection, schedule: Q04DX002 (ip), vehicle: carboxymethylcellulose (CMC) 94 % of control and 97 % of control | dose: 100.0 mg/kg/injection, schedule: Q04DX003 (ip), vehicle: carboxymethylcellulose (CMC) 100 % of control | [18] 96 % of control | dose: 200.0 mg/kg/injection, schedule: Q01DX009 (ip), vehicle: carboxymethylcellulose (CMC) 104 % of control and 87 % of control | dose: 200.0 mg/kg/injection, schedule: Q04DX002 (ip), vehicle: carboxymethylcellulose (CMC) 105 % of control and 87 % of control | dose: 200.0 mg/kg/injection, schedule: Q04DX003 (ip), vehicle: carboxymethylcellulose (CMC) 109 % of control | [19] 96 % of control | dose: 400.0 mg/kg/injection, schedule: Q01DX009 (ip), vehicle: carboxymethylcellulose (CMC) 93 % of control and 103 % of control | dose: 400.0 mg/kg/injection, schedule: Q04DX002 (ip), vehicle: carboxymethylcellulose (CMC) 93 % of control and 97 % of control | dose: 400.0 mg/kg/injection, schedule: Q04DX003 (ip), vehicle: carboxymethylcellulose (CMC) 102 % of control

CCC(C)(C=O)C(C)=O (centres undefined)
inactive: [11] 98 % of control | [12] 96 % of control | [13] 88 % of control

O=C(NC(CS)C(=O)O)OCc1ccccc1 (centres undefined)
inactive: dose: 25.0 mg/kg/injection, schedule: Q04DX003 (ip), vehicle: Klucel (hydroxypropylcellulose) (HPC) 97 % of control | dose: 50.0 mg/kg/injection, schedule: Q01DX009 (ip), vehicle: Klucel (hydroxypropylcellulose) (HPC) 101 % of control | dose: 50.0 mg/kg/injection, schedule: Q04DX003 (ip), vehicle: Klucel (hydroxypropylcellulose) (HPC) 98 % of control | [14] 101 % of control | dose: 100.0 mg/kg/injection, schedule: Q04DX003 (ip), vehicle: Klucel (hydroxypropylcellulose) (HPC) 106 % of control and 113 % of control | [15] 98 % of control

Cc1ccc(S(=O)(=O)Nc2ccc3nc(C)oc3c2)cc1
inactive: [10] 100 % of control | [1] 96 % of control | dose: 200.0 mg/kg/injection, schedule: Q01DX009 (ip), vehicle: saline with Tween-80 102 % of control | [2] 91 % of control | dose: 400.0 mg/kg/injection, schedule: Q01DX009 (ip), vehicle: saline with Tween-80 93 % of control | [20] 89 % of control
